# What was measured:
# Type in all cases: in vivo
# Descurainia sophia = assay: Activity assay of compositions: post-emergence spray treatment of stems and leaves (F), fresh weight inhibition and combined effect (Gowing method); details: 21 d
# Method: The required active ingredient B was purchased from a reagent company or a technical material manufacturer or synthesized by a conventional method. The technical materials were all dissolved with acetone solvents and diluted with aqueous solution of 0.1% Tween-80 emulsifier, which should be used immediately after dilution.
# Descurainia sophia weeds were cultivated by a pot culture method. […] Weed seeds with plump and uniform grains were selected, treated with 30% hydrogen peroxide for 10 min, and accelerated to germinate at 15-20° C. in a biochemical incubator (in darkness). The weed seeds that had just germinated were evenly placed on the surface of the soil and then covered with 0.5-1 cm soil according to the sizes of seeds.
# The culture was carried out in a controllable sunlight greenhouse at 20-30° C., in natural light, and with relative humidity of 57%-72%.
# Each treatment was repeated 4 times. Three pots with 20 weed seeds sowed per pot were treated each time.
# The agents were used once in total in the experiment. When at the stage of 1.5-2 leaves, the weeds were thinned out to maintain 10 weeds per pot. Thirty weeds were kept in each treatment, and then continued to be cultured until the 10-leaf stage for further treatment.
# The well-cultured test materials were evenly placed on a platform with an area of 0.5 m^2, and foliage spraying was carried out by the 3WP-2000-type walking spray tower at a dosage of 450 kg/ha and a spray pressure of 0.3 MPa. After all the solution was sprayed, the air valve was closed, and 30 seconds later, the door of the spray tower was opened, and the nutritional bowl was taken out. Next, the air valve was opened, and the spray tube was cleaned by spraying 50 ml of water. The test materials were transferred to and routinely cultured in a greenhouse after the treatment.
# A method for investigating absolute numbers was employed. Whole seedlings of survival weeds were cut off along the soil surface with a blade, and the fresh weight of the weeds was weighed using an analytical balance. For dead weeds, the fresh weight thereof was zero.
# The investigation was performed 21 days after the treatment for once in total.
# The theoretical fresh weight inhibition rate of a mixed combination of each treatment was calculated by the Gowing method (E0=X+Y−X*Y/100). Then compared with the measured inhibition rate (E), the type of the combined effect of the combination of the two on weeds was evaluated, which was a synergistic effect when E−E0>10%; an antagonistic effect when E−E0<−10%; an additional effect when −10%≤E−E0≤10%. An optimal ratio was determined according to factors such as the actual control effects, characteristics of herbicides, balance of the formulation, etc. In the formula, X represents the fresh weight inhibition rate of the active ingredient A in a dosage of P; Y represents the fresh weight inhibition rate of the active ingredient B in a dosage of Q. The statistical results are shown in Table 4.
# [1] = test system: monocotyledonous and dicotyledonous weeds; assay: Pre-emergence test experiment (weeds); set-up: key: 9: completely dead; 8: growth control rate is greater than or equal to 90% and less than 100%; 7: growth control rate is greater than or equal to 80% and less than 90%; 6: growth control rate is greater than or equal to 70% and less than 80%; growth control rate is greater than or equal to 50% and less than 70%; 4: growth control rate is greater than or equal to 30% and less than 50%; growth control rate is greater than or equal to 20% and less than 30%; growth control rate is greater than or equal to 10% and less than 20%; growth control rate is less than 10%; 0: no effect; details: 15 g a.i./ha
# Monochoria vaginalis = assay: Pre-emergence sealing experiment for water-seeding; set-up: key: 9: completely dead; 8: growth control rate is greater than or equal to 90% and less than 100%; 7: growth control rate is greater than or equal to 80% and less than 90%; 6: growth control rate is greater than or equal to 70% and less than 80%; growth control rate is greater than or equal to 50% and less than 70%; 4: growth control rate is greater than or equal to 30% and less than 50%; growth control rate is greater than or equal to 20% and less than 30%; growth control rate is greater than or equal to 10% and less than 20%; growth control rate is less than 10%; 0: no effect; details: 15 g a.i./ha, 15 days, sulfonylurea-resistant strain
# Excerpt: (§1) The activity level criteria for plant damage (i.e., growth control rate) are as follows: • Level 9: completely dead; • Level 8: growth control rate is greater than or equal to 90% and less than 100%; • Level 7: growth control rate is greater than or equal to 80% and less than 90%; • Level 6: growth control rate is greater than or equal to 70% and less than 80%; • Level 5: growth control rate is greater than or equal to 50% and less than 70%; • Level 4: growth control rate is greater than or equal to 30% and less than 50%; • Level 3: growth control rate is greater than or equal to 20% and less than 30%; • Level 2: growth control rate is greater than or equal to 10% and less than 20%; • Level 1: growth control rate is less than 10%; • Level 0: no effect.
# (§2) The seeds of Leptochloa chinensis, Digitaria sanguinalis, Monochoria vaginalis (sulfonylurea-resistant strain, collected from Hunan, China), Cyperus iria (sulfonylurea-resistant strain, collected from Jiangsu, China), Huaidao (rice cultivar), etc. were broadcasted on the surface of nutrition bowls filled with soil and fully covered by soil. The prepared nutrition bowls were then placed in a cultivation box, with water filled to a suitable height to keep the soil in the nutrition bowls moist. The test compounds of the present invention were individually dissolved with mixed solutions of acetone and Tween-80, then diluted into solution of a certain concentration using a certain amount of water and sprayed using a spray tower. The plants were placed on a greenhouse seedbed and cultured for 15 days, and the experimental results were then collected. The compounds were applied at 120, 60, 30 and 15 g a.i./ha in triplicate and the results were averaged. The effects were evaluated according to the above activity level criteria.
# Digitaria sanguinalis = assay: Pre-emergence sealing experiment for water-seeding; set-up: key: 9: completely dead; 8: growth control rate is greater than or equal to 90% and less than 100%; 7: growth control rate is greater than or equal to 80% and less than 90%; 6: growth control rate is greater than or equal to 70% and less than 80%; growth control rate is greater than or equal to 50% and less than 70%; 4: growth control rate is greater than or equal to 30% and less than 50%; growth control rate is greater than or equal to 20% and less than 30%; growth control rate is greater than or equal to 10% and less than 20%; growth control rate is less than 10%; 0: no effect; details: 15 g a.i./ha, 15 days
# Excerpt: as §1, §2
# Leptochloa chinensis = assay: Pre-emergence sealing experiment for water-seeding; set-up: key: 9: completely dead; 8: growth control rate is greater than or equal to 90% and less than 100%; 7: growth control rate is greater than or equal to 80% and less than 90%; 6: growth control rate is greater than or equal to 70% and less than 80%; growth control rate is greater than or equal to 50% and less than 70%; 4: growth control rate is greater than or equal to 30% and less than 50%; growth control rate is greater than or equal to 20% and less than 30%; growth control rate is greater than or equal to 10% and less than 20%; growth control rate is less than 10%; 0: no effect; details: 15 g a.i./ha, 15 days
# Excerpt: as §1, §2
# Cyperus iria = assay: Pre-emergence sealing experiment for water-seeding; set-up: key: 9: completely dead; 8: growth control rate is greater than or equal to 90% and less than 100%; 7: growth control rate is greater than or equal to 80% and less than 90%; 6: growth control rate is greater than or equal to 70% and less than 80%; growth control rate is greater than or equal to 50% and less than 70%; 4: growth control rate is greater than or equal to 30% and less than 50%; growth control rate is greater than or equal to 20% and less than 30%; growth control rate is greater than or equal to 10% and less than 20%; growth control rate is less than 10%; 0: no effect; details: 15 g a.i./ha, 15 days, sulfonylurea-resistant strain
# Excerpt: as §1, §2
# major crops = assay: Pre-emergence test experiment (crops); set-up: key: 9: completely dead; 8: growth control rate is greater than or equal to 90% and less than 100%; 7: growth control rate is greater than or equal to 80% and less than 90%; 6: growth control rate is greater than or equal to 70% and less than 80%; growth control rate is greater than or equal to 50% and less than 70%; 4: growth control rate is greater than or equal to 30% and less than 50%; growth control rate is greater than or equal to 20% and less than 30%; growth control rate is greater than or equal to 10% and less than 20%; growth control rate is less than 10%; 0: no effect; details: 15 g a.i./ha
compound,measurement,setting,value
CCOC(=O)c1nc(-c2ccc(C(F)(F)F)c(OC)c2F)nc(N)c1OC,Control effect of B applied alone in a corresponding dose (%),Descurainia sophia; B 6 g a.i./ha,26.8%
same,Control effect of B applied alone in a corresponding dose (%),Descurainia sophia; B 12 g a.i./ha,37.7%
"C[N+](C)(C)CCO.O=C([O-])COc1ccc(Cl)cc1Cl [2,4-D-Choline]",Control effect of B applied alone in a corresponding dose (%),Descurainia sophia; B 150 g a.i./ha,44.7%
same,Control effect of B applied alone in a corresponding dose (%),Descurainia sophia; B 300 g a.i./ha,60.0%
Cc1nn(C)cc1C(=O)Oc1c(C(=O)c2ccc(C(F)(F)F)cc2S(C)(=O)=O)c(C)nn1C [Bipyrazone],Control effect of B applied alone in a corresponding dose (%),Descurainia sophia; B 15 g a.i./ha,55.4%
same,Control effect of B applied alone in a corresponding dose (%),Descurainia sophia; B 30 g a.i./ha,78.9%
O=C(O)c1nc(Cl)ccc1Cl [Clopyralid],Control effect of B applied alone in a corresponding dose (%),Descurainia sophia; B 30 g a.i./ha,40.5%
same,Control effect of B applied alone in a corresponding dose (%),Descurainia sophia; B 60 g a.i./ha,58.8%
Cc1ccc(-n2cnc(C(F)(F)F)n2)nc1Oc1cccc(C(F)(F)F)c1 [Compound 8],Pre-emergence activity level (growth control rate) on Amaranthus retroflexus,[1],9
same,Pre-emergence activity level (growth control rate) on Descurainia sophia,[1],9
same,Pre-emergence activity level (growth control rate) on Digitaria sanguinalis,[1],9
same,Pre-emergence activity level (growth control rate) on Setaria viridis,[1],9
same,Pre-emergence activity level (growth control rate) on Solanum nigrum,[1],9
same,Pre-emergence activity level (growth control rate) on Veronica,[1],9
same,"activity level (growth control rate, fresh weight), Monochoria vaginalis",Monochoria vaginalis,9
same,"activity level (growth control rate, fresh weight), Digitaria sanguinalis",Digitaria sanguinalis,9
same,"activity level (growth control rate, fresh weight), Leptochloa chinensis",Leptochloa chinensis,9
same,"activity level (growth control rate, fresh weight), Cyperus iria",Cyperus iria,9
same,Pre-emergence plant damage level (growth control rate) on Corn,major crops,0
same,Pre-emergence plant damage level (growth control rate) on Cotton,major crops,0
same,Pre-emergence plant damage level (growth control rate) on Soybean,major crops,0
CCc1ccc(-n2cnc(C(F)(F)F)n2)nc1Oc1cccc(C(F)(F)F)c1 [Compound 16],Pre-emergence activity level (growth control rate) on Amaranthus retroflexus,[1],9
same,Pre-emergence activity level (growth control rate) on Descurainia sophia,[1],9
same,Pre-emergence activity level (growth control rate) on Digitaria sanguinalis,[1],9
same,Pre-emergence activity level (growth control rate) on Setaria viridis,[1],9
same,Pre-emergence activity level (growth control rate) on Solanum nigrum,[1],9
same,Pre-emergence activity level (growth control rate) on Veronica,[1],9
same,"activity level (growth control rate, fresh weight), Monochoria vaginalis",Monochoria vaginalis,9
same,"activity level (growth control rate, fresh weight), Digitaria sanguinalis",Digitaria sanguinalis,9
same,"activity level (growth control rate, fresh weight), Leptochloa chinensis",Leptochloa chinensis,9
same,"activity level (growth control rate, fresh weight), Cyperus iria",Cyperus iria,9
same,Pre-emergence plant damage level (growth control rate) on Corn,major crops,0
same,Pre-emergence plant damage level (growth control rate) on Cotton,major crops,0
same,Pre-emergence plant damage level (growth control rate) on Soybean,major crops,0
COc1c(Cl)ccc(Cl)c1C(=O)O [Dicamba],Control effect of B applied alone in a corresponding dose (%),Descurainia sophia; B 37.5 g a.i./ha,39.6%
same,Control effect of B applied alone in a corresponding dose (%),Descurainia sophia; B 75 g a.i./ha,50.8%
c1cc[n+]2c(c1)-c1cccc[n+]1CC2 [Diquat dibromide monohydrate],Control effect of B applied alone in a corresponding dose (%),Descurainia sophia; B 60 g a.i./ha,42.2%
same,Control effect of B applied alone in a corresponding dose (%),Descurainia sophia; B 120 g a.i./ha,66.6%
CP(=O)(O)CCC(N)C(=O)O (stereo not shown) [Glufosinate-ammonium],Control effect of B applied alone in a corresponding dose (%),Descurainia sophia; B 60 g a.i./ha,50.7%
same,Control effect of B applied alone in a corresponding dose (%),Descurainia sophia; B 120 g a.i./ha,71.5%
O=C(O)CNCP(=O)(O)O [Glyphosate],Control effect of B applied alone in a corresponding dose (%),Descurainia sophia; B 75 g a.i./ha,56.6%
same,Control effect of B applied alone in a corresponding dose (%),Descurainia sophia; B 150 g a.i./ha,75.8%
COC(=O)c1nc(-c2ccc(Cl)c(OC)c2F)cc(N)c1Cl [Halauxifen-methyl],Control effect of B applied alone in a corresponding dose (%),Descurainia sophia; B 3 g a.i./ha,42.0%
same,Control effect of B applied alone in a corresponding dose (%),Descurainia sophia; B 6 g a.i./ha,67.4%
C[n+]1ccc(-c2cc[n+](C)cc2)cc1 [Paraquat dichloride],Control effect of B applied alone in a corresponding dose (%),Descurainia sophia; B 30 g a.i./ha,46.9%
same,Control effect of B applied alone in a corresponding dose (%),Descurainia sophia; B 60 g a.i./ha,68.0%
